tested on: NBD1; test: Aggregation analysis using differential static light scattering (DSLS), thermal stability of NBD1; format: binding, Human; conditions: 100 μM compound; ΔTagg = Tagg minus average Tagg of DMSO control wells; NBD1 0.2 mg/ml
Protocol: Example 23. Aggregation Analysis Using Differential Static Light Scattering (DSLS)
Purified recombinant NBD1 was produced using previously described methods (A. Schmidt, J. L. Mendoza, P. J. Thomas (2011) Biochemical and Biophysical Approaches to Probe CFTR Structure (365-376) M. D. Amaral, K. Kunzelmann (eds.), Cystic Fibrosis, Methods in Molecular Biology 741, Springer Science+Business Media). The effect of test compounds on thermal stability of NBD1 was evaluated by differential static light scattering (DSLS) using the Harbinger Stargazer-384 instrument (Epiphyte Three, Toronto, Canada). Test compounds were dissolved and diluted to desired concentrations in 100% DMSO. The compounds or DMSO controls (100 nL) were stamped into wells of a […] low volume optical plate (Corning Inc., Corning, NY) using the Echo 555 acoustic liquid handler (Labcyte Inc., San Jose, CA).
NBD1 protein was diluted to 0.2 mg/ml in S200 buffer (50 mM Tris-HCl, 150 mM NaCl, 5 mM MgCl2, 2 mM ATP, 2 mM DTT, pH7.6) containing 1% glycerol. 10 μL of protein solution was aliquoted into the 384-well plate harboring the test compounds and 10 μL mineral oil was overlayed onto the protein solution, using the epMotion robotic liquid handler (Eppendorf North America, Hauppauge, NY). After placing into the Stargazer instrument, the plate was heated at 1° C. per minute to 70° C. Images were captured from 25° C. to 70° C. every 0.5° C. At the end of the experiment run, instrument software integrated image files and analyzed data automatically. A linear regression curve was generated for each well, representing the increase in light scattering over time. A temperature of aggregation (Tagg) was calculated based on the inflection point of the curve. To better compare data across experiments the average Tagg for DMSO control wells was calculated and subtracted from values for wells containing compounds to obtain a “ΔTagg” value. These ΔTagg values reflect stabilizing efficacy of the compounds.

Compound | DSLS NBD1/3D Human Stability delta-T (° C.) @ 100 (μM)
CN1CCc2nc(-c3cc(Oc4c(F)cc5[nH]ccc5c4F)ccc3F)[nH]c2[C@@H]1c1cccc(CCC(=O)O)c1F (single isomer, unassigned) [Example 6] | A (T ≥ 8° C.)
CCOC(=O)CCc1ccc(C2c3nc(-c4cc(Oc5c(F)cc6[nH]ccc6c5S(C)(=O)=O)ccc4F)[nH]c3CCN2C)s1 (stereo not shown) [Example 18, ethyl 3-[5-[2-[2-fluoro-5-[(6-fluoro-4-methylsulfonyl-1H-indol-5-yl)oxy]phenyl]-5-methyl-1,4,6,7-tetrahydroimidazo[4,5-c]pyridin-4-yl]-2-thienyl]propanoate] | B (4-8° C.)
CC(Cc1cccc(C2c3nc(-c4cc(Oc5c(F)cc6[nH]ccc6c5S(C)(=O)=O)ccc4F)[nH]c3CCN2C)c1F)C(=O)O (stereo not shown) [Example 7, 3-[2-fluoro-3-[2-[2-fluoro-5-[(6-fluoro-4-methylsulfonyl-1H-indol-5-yl)oxy]phenyl]-5-methyl-1,4,6,7-tetrahydroimidazo[4,5-c]pyridin-4-yl]phenyl]-2-methyl-propanoic acid] | A (T ≥ 8° C.)
CN1CCc2[nH]c(-c3cc(Oc4c(F)cc5[nH]ccc5c4S(C)(=O)=O)ccc3F)nc2C1c1cccc(CC(O)CO)c1F (stereo not shown) [Example 21, 3-[2-fluoro-3-[2-[2-fluoro-5-[(6-fluoro-4-methylsulfonyl-1H-indol-5-yl)oxy]phenyl]-5-methyl-1,4,6,7-tetrahydroimidazo[4,5-c]pyridin-4-yl]phenyl]propane-1,2-diol] | A (T ≥ 8° C.)
CN1CCc2nc(-c3cc(Oc4c(F)cc5[nH]ccc5c4F)ccc3F)[nH]c2[C@H]1c1cccc(CCC(=O)O)c1F (single isomer, unassigned) [Example 5] | B (4-8° C.)
CCOC(=O)CCc1cccc(C2c3nc(-c4cc(Oc5c(F)cc6[nH]ccc6c5S(C)(=O)=O)ccc4F)[nH]c3CCN2C)c1F (stereo not shown) [Example 13, ethyl 3-[2-fluoro-3-[2-[2-fluoro-5-[(6-fluoro-4-methylsulfonyl-1H-indol-5-yl)oxy]phenyl]-5-methyl-1,4,6,7-tetrahydroimidazo[4,5-c]pyridin-4-yl]phenyl]propanoate] | B (4-8° C.)
CNC(=O)CCc1cccc(C2c3nc(-c4cc(Oc5c(F)cc6[nH]ccc6c5S(C)(=O)=O)ccc4F)[nH]c3CCN2CC(F)F)c1F (stereo not shown) [Example 17, 3-[3-[5-(2,2-difluoroethyl)-2-[2-fluoro-5-[(6-fluoro-4-methylsulfonyl-1H-indol-5-yl)oxy]phenyl]-1,4,6,7-tetrahydroimidazo[4,5-c]pyridin-4-yl]-2-fluoro-phenyl]-N-methyl-propanamide] | B (4-8° C.)
CCOC(=O)CCc1cccc(C2c3nc(-c4cc(Oc5c(F)cc6[nH]ccc6c5S(C)(=O)=O)ccc4F)[nH]c3CCN2CC(F)F)c1F (stereo not shown) [Example 15, ethyl 3-[3-[5-(2,2-difluoroethyl)-2-[2-fluoro-5-[(6-fluoro-4-methylsulfonyl-1H-indol-5-yl)oxy]phenyl]-1,4,6,7-tetrahydroimidazo[4,5-c]pyridin-4-yl]-2-fluoro-phenyl]propanoate] | C (≤4° C.)
O=C(O)CCc1cccc([C@@H]2NCCc3nc(-c4cc(Oc5c(F)cc6[nH]ccc6c5F)ccc4F)[nH]c32)c1F (single isomer, unassigned) [Example 4] | C (≤4° C.)
Cc1c(-c2cc(Oc3c(F)cc4[nH]ccc4c3F)ccc2F)nc2n1CCNC2c1cccc(CC(O)CO)c1F (stereo not shown) [Example 9, 3-[3-[2-[5-[(4,6-difluoro-1H-indol-5-yl)oxy]-2-fluoro-phenyl]-3-methyl-5,6,7,8-tetrahydroimidazo[1,2-a]pyrazin-8-yl]-2-fluoro-phenyl]propane-1,2-diol] | B (4-8° C.)
CS(=O)(=O)c1c(Oc2ccc(F)c(-c3nc4c([nH]3)CCN(CC(F)F)C4c3cccc(CCC(=O)O)c3F)c2)c(F)cc2[nH]ccc12 (stereo not shown) [Example 16, 3-[3-[5-(2,2-difluoroethyl)-2-[2-fluoro-5-[(6-fluoro-4-methylsulfonyl-1H-indol-5-yl)oxy]phenyl]-1,4,6,7-tetrahydroimidazo[4,5-c]pyridin-4-yl]-2-fluoro-phenyl]propanoic acid] | A (T ≥ 8° C.)
CN1CCc2[nH]c(-c3cc(Oc4c(F)cc5[nH]ccc5c4F)ccc3F)nc2C1c1cccc(CC(O)CO)c1F (stereo not shown) [Example 20, 3-[3-[2-[5-[(4,6-difluoro-1H-indol-5-yl)oxy]-2-fluoro-phenyl]-5-methyl-1,4,6,7-tetrahydroimidazo[4,5-c]pyridin-4-yl]-2-fluoro-phenyl]propane-1,2-diol] | B (4-8° C.)
CN1CCc2[nH]c(-c3cc(Oc4c(F)cc5[nH]ccc5c4S(C)(=O)=O)ccc3F)nc2C1c1ccc(CCC(=O)O)s1 (stereo not shown) [Example 19, 3-[5-[2-[2-fluoro-5-[(6-fluoro-4-methylsulfonyl-1H-indol-5-yl)oxy]phenyl]-5-methyl-1,4,6,7-tetrahydroimidazo[4,5-c]pyridin-4-yl]-2-thienyl]propanoic acid] | A (T ≥ 8° C.)
CN1CCc2[nH]c(-c3cc(Oc4c(F)cc5[nH]ccc5c4S(C)(=O)=O)ccc3F)nc2C1c1cccc(CCC(=O)O)c1F (stereo not shown) [Example 14, 3-[2-fluoro-3-[2-[2-fluoro-5-[(6-fluoro-4-methylsulfonyl-1H-indol-5-yl)oxy]phenyl]-5-methyl-1,4,6,7-tetrahydroimidazo[4,5-c]pyridin-4-yl]phenyl]propanoic acid] | A (T ≥ 8° C.)
CCOC(=O)C(C)Cc1cccc(C2NCCn3c2nc(-c2cc(Oc4c(F)cc5[nH]ccc5c4F)ccc2F)c3C)c1F (stereo not shown) [Example 10, ethyl 3-[3-[2-[5-[(4,6-difluoro-1H-indol-5-yl)oxy]-2-fluoro-phenyl]-3-methyl-5,6,7,8-tetrahydroimidazo[1,2-a]pyrazin-8-yl]-2-fluoro-phenyl]-2-methyl-propanoate] | C (≤4° C.)
O=C(O)Cc1cccc(C2OCCc3[nH]c(-c4cc(Oc5c(F)cc6[nH]ccc6c5F)ccc4F)nc32)c1 (stereo not shown) [Example 2, 2-(3-(2-(5-((4,6-difluoro-1H-indol-5-yl)oxy)-2-fluorophenyl)-1,4,6,7-tetrahydropyrano[3,4-d]imidazol-4-yl)phenyl)acetic acid] | B (4-8° C.)
